Reference: ChEMBL document CHEMBL2177007, “Indole-derived psammaplin A analogues as epigenetic modulators with multiple inhibitory activities” (J Med Chem, 2012)
Calls of active or inactive are those of the source. The calls are words filed in the database; no cut-off is given here.

Columns and labels:
[1] = molecular target: T1, Protein deacetylase HDAC6 (Homo sapiens) (UniProt Q9UBN7); test: Inhibition of HDAC6 in human U937 cells assessed as induction of alpha-tubulin acetylation at 5 uM after 30 hrs by cytofluorimetric analysis; type: cell-based; details: U-937
T1 sequence (whole entry): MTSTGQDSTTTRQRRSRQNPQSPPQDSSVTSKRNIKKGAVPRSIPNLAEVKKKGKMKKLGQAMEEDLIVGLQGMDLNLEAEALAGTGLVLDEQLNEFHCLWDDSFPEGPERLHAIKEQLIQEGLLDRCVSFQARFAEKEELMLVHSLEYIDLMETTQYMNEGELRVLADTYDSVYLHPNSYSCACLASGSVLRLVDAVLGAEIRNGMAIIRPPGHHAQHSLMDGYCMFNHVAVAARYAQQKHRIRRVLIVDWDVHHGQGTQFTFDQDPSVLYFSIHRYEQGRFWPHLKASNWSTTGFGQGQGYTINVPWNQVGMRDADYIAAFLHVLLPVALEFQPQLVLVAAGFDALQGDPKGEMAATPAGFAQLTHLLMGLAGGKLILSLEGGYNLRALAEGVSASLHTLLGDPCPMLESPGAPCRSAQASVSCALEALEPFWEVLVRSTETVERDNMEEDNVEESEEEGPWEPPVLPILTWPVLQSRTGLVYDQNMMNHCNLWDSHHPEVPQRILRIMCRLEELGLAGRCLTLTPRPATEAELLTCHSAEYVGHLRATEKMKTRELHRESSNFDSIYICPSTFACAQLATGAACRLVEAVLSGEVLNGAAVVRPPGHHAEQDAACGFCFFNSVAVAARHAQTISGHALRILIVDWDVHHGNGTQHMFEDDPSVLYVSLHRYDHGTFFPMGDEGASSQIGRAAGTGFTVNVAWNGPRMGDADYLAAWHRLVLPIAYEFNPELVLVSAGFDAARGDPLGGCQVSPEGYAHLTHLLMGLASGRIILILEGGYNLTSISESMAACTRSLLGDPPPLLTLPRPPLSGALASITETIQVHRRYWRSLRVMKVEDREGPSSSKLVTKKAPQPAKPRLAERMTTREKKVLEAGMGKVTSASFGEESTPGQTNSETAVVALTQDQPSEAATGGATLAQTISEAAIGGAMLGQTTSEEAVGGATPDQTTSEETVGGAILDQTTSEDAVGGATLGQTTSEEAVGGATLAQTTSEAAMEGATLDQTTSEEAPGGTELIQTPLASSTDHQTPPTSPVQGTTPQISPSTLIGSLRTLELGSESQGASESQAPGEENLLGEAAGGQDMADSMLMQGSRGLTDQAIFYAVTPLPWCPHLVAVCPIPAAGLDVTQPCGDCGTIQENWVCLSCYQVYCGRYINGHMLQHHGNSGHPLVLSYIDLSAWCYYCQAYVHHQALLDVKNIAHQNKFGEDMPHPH

[2] = system: U-937; test: Induction of apoptosis in human U937 cells at 5 uM after 30 hrs; type: functional, cell-based
[3] = molecular target: Histone deacetylase 4 (Homo sapiens) (UniProt P56524); test: Inhibition of HDAC4 in human U937 cells at 5 uM […]; type: cell-based; details: U-937
[4] = molecular target: Histone deacetylase 1 (Homo sapiens) (UniProt Q13547); test: Inhibition of HDAC1 in human U937 cells at 5 uM […]; type: cell-based; details: U-937
[5] = molecular target: Histone deacetylase (Homo sapiens) (UniProt Q13547+O15379+Q9UBN7+Q92769+Q9UQL6+Q8WUI4+Q9BY41+Q96DB2+P56524+Q9UKV0+Q969S8); test: Inhibition of HDAC in human U937 cells assessed as induction of histone H3 acetylation at 5 uM after 30 hrs by cytofluorimetric analysis; type: cell-based; details: U-937
[6] = molecular target: Protein kinase C alpha type (Homo sapiens) (UniProt P17252); test: Inhibition of PKCalpha in human U937 cells assessed as p21WAF1/CIP1 expression at 5 uM after 30 hrs by cytofluorimetric analysis; type: cell-based; details: U-937
[7] = molecular target: DNA (cytosine-5)-methyltransferase 1 (Homo sapiens) (UniProt P26358); test: Inhibition of recombinant DNMT1 using S-adenosyl-L-[methyl-3H]methionine as substrate at 5 uM after 2 hrs by radioactive assay
[8] = system: U-937; test: Effect on DNMT1 level in human U937 cells at 0.5 to 5 uM after 24 hrs by Western blot analysis; type: functional, cell-based
[9] = molecular target: T2, NAD-dependent protein deacetylase sirtuin-1 (Homo sapiens) (UniProt Q96EB6); test: Inhibition of human recombinant SIRT1 using KI-177 as substrate at 5 uM after 30 mins by fluorescence assay
T2 sequence (whole entry): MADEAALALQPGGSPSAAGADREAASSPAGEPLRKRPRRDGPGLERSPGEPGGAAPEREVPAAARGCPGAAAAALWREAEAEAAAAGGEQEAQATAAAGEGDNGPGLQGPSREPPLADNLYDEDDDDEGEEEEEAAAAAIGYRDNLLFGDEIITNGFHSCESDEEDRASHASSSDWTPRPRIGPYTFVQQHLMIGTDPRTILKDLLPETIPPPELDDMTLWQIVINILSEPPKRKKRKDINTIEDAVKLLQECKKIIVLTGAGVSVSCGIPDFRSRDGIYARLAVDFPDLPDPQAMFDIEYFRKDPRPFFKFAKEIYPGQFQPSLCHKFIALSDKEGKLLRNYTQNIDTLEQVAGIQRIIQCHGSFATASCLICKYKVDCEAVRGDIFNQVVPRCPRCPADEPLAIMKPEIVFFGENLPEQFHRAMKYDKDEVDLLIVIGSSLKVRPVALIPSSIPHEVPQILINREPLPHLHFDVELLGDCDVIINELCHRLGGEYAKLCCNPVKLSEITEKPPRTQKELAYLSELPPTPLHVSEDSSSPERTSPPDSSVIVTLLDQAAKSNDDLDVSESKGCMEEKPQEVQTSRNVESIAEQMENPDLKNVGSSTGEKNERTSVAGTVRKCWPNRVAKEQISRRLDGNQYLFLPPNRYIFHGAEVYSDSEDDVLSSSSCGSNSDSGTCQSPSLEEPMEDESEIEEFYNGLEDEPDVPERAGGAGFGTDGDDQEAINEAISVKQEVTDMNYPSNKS

[10] = molecular target: T2, NAD-dependent protein deacetylase sirtuin-1 (Homo sapiens); test: Inhibition of SIRT1 in human MCF7 cells assessed as p53 acetylation on lysine 382 at 5 uM after 24 hrs by Western blot analysis; type: cell-based
[11] = molecular target: T2, NAD-dependent protein deacetylase sirtuin-1 (Homo sapiens); test: Inhibition of SIRT1 in human U937 cells assessed as H3 acetylation on lysine K9 at 5 uM after 24 hrs by Western blot analysis; type: cell-based; details: U-937
[12] = molecular target: T2, NAD-dependent protein deacetylase sirtuin-1 (Homo sapiens); test: Inhibition of SIRT1 in human U937 cells assessed as H3 acetylation on lysine K56 at 5 uM after 24 hrs by Western blot analysis; type: cell-based; details: U-937
[13] = system: U-937; test: Induction of cell differentiation in human U937 cells assessed as CD11c expression at 5 uM after 30 hrs by cytofluorimetric analysis; type: functional, cell-based
[14] = molecular target: DNA (cytosine-5)-methyltransferase 1 (Homo sapiens) (UniProt P26358); test: Inhibition of DNMT1 human u937 cells assessed as reactivation of p16 expression at 0.5 to 5 uM after 24 hrs by Western blot analysis

Sequence of Histone deacetylase 1 (Homo sapiens) (Q13547 whole entry): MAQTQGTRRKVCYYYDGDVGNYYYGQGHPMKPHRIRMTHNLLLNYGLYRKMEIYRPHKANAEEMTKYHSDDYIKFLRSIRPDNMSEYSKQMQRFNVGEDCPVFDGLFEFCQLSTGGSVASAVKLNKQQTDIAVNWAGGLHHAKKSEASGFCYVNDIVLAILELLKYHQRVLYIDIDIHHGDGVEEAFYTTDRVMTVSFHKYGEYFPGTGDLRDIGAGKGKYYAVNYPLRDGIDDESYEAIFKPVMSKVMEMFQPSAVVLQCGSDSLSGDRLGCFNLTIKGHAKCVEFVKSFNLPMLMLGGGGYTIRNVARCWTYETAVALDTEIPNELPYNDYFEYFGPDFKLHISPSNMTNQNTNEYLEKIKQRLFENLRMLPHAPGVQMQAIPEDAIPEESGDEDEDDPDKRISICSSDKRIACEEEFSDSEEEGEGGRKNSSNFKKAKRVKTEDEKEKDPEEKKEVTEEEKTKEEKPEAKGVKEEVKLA
Sequence of DNA (cytosine-5)-methyltransferase 1 (Homo sapiens) (P26358 whole entry): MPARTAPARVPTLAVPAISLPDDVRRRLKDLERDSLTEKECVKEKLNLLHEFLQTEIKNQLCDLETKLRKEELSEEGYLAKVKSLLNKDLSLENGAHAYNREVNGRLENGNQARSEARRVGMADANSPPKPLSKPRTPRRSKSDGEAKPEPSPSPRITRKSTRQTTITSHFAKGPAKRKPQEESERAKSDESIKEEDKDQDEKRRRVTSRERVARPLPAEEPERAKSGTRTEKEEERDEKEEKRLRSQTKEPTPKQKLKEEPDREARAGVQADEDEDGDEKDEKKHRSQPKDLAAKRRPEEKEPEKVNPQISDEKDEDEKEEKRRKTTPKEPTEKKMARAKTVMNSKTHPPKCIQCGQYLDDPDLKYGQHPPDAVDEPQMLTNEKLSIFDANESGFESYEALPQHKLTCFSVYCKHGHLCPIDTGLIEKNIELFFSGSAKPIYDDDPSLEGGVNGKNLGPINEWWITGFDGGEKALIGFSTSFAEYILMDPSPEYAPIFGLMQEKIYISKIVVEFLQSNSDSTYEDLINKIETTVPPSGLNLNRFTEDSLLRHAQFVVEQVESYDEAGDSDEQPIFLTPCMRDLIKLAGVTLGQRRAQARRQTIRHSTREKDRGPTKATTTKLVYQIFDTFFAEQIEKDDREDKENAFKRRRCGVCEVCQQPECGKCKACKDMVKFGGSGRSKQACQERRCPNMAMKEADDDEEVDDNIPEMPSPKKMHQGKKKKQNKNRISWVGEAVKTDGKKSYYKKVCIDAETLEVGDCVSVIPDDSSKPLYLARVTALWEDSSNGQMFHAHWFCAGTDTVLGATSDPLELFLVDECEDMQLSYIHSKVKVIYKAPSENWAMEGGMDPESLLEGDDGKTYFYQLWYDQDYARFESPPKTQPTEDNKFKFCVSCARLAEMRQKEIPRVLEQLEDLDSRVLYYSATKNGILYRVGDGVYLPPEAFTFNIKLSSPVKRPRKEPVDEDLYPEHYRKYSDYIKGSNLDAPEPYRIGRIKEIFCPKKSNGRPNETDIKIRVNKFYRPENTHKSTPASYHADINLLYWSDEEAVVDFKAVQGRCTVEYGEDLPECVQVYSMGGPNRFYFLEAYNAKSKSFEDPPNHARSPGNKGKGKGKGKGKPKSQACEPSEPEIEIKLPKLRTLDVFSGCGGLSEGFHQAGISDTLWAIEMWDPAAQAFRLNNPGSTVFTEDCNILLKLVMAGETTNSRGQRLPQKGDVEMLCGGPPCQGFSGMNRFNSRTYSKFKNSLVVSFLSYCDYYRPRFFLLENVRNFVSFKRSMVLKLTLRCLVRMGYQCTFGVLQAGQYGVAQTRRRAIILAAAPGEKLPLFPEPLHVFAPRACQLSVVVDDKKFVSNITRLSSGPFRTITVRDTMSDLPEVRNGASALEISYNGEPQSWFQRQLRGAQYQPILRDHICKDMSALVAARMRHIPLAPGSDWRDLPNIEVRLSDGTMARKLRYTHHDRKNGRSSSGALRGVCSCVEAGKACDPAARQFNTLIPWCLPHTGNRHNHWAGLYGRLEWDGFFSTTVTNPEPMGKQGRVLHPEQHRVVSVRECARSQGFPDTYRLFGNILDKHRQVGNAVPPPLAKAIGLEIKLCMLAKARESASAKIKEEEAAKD
Sequence of Histone deacetylase 4 (Homo sapiens) (P56524 whole entry): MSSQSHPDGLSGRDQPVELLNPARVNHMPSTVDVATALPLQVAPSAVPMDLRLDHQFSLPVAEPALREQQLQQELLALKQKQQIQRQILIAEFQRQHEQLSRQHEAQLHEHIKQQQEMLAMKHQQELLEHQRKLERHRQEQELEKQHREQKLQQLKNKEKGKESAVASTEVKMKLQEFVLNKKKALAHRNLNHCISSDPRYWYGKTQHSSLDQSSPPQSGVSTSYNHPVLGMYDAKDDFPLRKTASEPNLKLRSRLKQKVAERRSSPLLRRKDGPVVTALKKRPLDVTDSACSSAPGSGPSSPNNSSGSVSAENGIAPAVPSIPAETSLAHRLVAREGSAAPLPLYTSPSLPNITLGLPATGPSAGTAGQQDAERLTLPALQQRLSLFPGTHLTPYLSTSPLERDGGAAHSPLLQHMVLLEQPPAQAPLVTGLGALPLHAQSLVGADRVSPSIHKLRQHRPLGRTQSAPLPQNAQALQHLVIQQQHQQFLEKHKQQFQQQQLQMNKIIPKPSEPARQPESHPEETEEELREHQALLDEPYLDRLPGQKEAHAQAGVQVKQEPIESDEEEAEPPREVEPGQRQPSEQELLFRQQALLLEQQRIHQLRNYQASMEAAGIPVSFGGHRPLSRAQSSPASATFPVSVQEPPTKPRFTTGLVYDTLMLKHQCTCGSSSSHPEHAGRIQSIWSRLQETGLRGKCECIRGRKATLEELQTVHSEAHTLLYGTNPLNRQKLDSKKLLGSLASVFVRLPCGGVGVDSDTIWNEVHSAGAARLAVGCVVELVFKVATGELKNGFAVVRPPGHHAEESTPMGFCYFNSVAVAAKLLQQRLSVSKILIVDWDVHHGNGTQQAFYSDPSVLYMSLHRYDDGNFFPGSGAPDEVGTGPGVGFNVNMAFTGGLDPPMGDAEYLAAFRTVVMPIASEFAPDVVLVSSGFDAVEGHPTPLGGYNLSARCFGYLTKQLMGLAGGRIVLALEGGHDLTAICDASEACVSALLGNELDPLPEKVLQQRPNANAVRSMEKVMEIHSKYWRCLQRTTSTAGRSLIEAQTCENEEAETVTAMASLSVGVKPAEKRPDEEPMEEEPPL

inhibition [1] | inhibition [3] | inhibition [4] | inhibition [5] | inhibition [6] | SMILES | Activity [8] | further results
Active | – | – | – | – | O=C(NCCSSCCNC(=O)/C(Cc1c[nH]c2ccc(Br)cc12)=N/OCc1ccccc1)/C(Cc1c[nH]c2ccc(Br)cc12)=N/OCc1ccccc1 | – | –
Active | Active | Active | Active | Active | O=C(NCCSSCCNC(=O)/C(Cc1c[nH]c2ccc(Cl)cc12)=N/O)/C(Cc1c[nH]c2ccc(Cl)cc12)=N/O | – | Activity [2]: Active
– | – | – | – | – | O=C(O)[C@H](Cc1c[nH]c2ccccc12)N1C(=O)c2ccccc2C1=O | – | inhibition [7]: Active
Active | 20% | 40% | – | – | O=C(NCCCCCSSCCCCCNC(=O)/C(Cc1c[nH]c2ccc(Br)cc12)=N/O)/C(Cc1c[nH]c2ccc(Br)cc12)=N/O | – | –
Active | 20% | 40% | Active | Active | O=C(NCCSSCCNC(=O)/C(Cc1c[nH]c2ccccc12)=N/O)/C(Cc1c[nH]c2ccccc12)=N/O | inactive | inhibition [9]: Active; inhibition [10]: Active
Active | – | – | – | – | O=C(NCCSSCCNC(=O)/C(Cc1cn(Cc2ccc(Br)cc2)c2ccc(Br)cc12)=N/O)/C(Cc1cn(Cc2ccc(Br)cc2)c2ccc(Br)cc12)=N/O | inactive | inhibition [11]: Active; inhibition [12]: Active; inhibition [9]: Active
Active | Active | Active | Active | Active | COc1ccc2[nH]cc(C/C(=N\O)C(=O)NCCSSCCNC(=O)/C(Cc3c[nH]c4ccc(OC)cc34)=N/O)c2c1 | – | Activity [2]: Active; Activity [13]: Active
Active | – | – | – | – | O=C(NCCSSCCNC(=O)/C(Cc1c[nH]c2cccc(Br)c12)=N/O)/C(Cc1c[nH]c2cccc(Br)c12)=N/O | – | –
Active | – | – | – | – | O=C(NCCCSSCCCNC(=O)/C(Cc1c[nH]c2ccc(Br)cc12)=N/O)/C(Cc1c[nH]c2ccc(Br)cc12)=N/O | – | Activity [13]: Active
Active | – | – | – | – | O=C(NCCCCCCCCNC(=O)/C(Cc1c[nH]c2ccc(Br)cc12)=N/O)/C(Cc1c[nH]c2ccc(Br)cc12)=N/O | inactive | inhibition [7]: inactive; inhibition [11]: Active; inhibition [12]: Active; inhibition [9]: Active; inhibition [14]: Active
Active | Active | Active | Active | Active | O=C(NCCSSCCNC(=O)/C(Cc1c[nH]c2ccc(I)cc12)=N/O)/C(Cc1c[nH]c2ccc(I)cc12)=N/O | – | Activity [2]: Active
inactive | Active | Active | inactive | inactive | O=C(NCCSSCCNC(=O)/C(Cc1c[nH]c2ccc(F)cc12)=N/O)/C(Cc1c[nH]c2ccc(F)cc12)=N/O | – | Activity [2]: Active
Active | – | – | – | – | COCCNC(=O)/C(Cc1c[nH]c2ccc(Br)cc12)=N/O | inactive | inhibition [11]: inactive; inhibition [12]: inactive; inhibition [9]: inactive
Active | – | – | – | – | Cn1cc(CCC(=O)NCCSSCCNC(=O)CCc2cn(C)c3ccc(Br)cc23)c2cc(Br)ccc21 | – | –
Active | Active | Active | – | – | CO/N=C(\Cc1c[nH]c2ccc(Br)cc12)C(=O)NCCSSCCNC(=O)/C(Cc1c[nH]c2ccc(Br)cc12)=N/OC | inactive | inhibition [7]: Active; inhibition [14]: Active
